Results: PubChem BioAssay (NCI)
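Results reflect a 48-hour exposure of cells in 96-well plates to compound at five concentrations. Abbreviation: GI50, concentration required for 50% inhibition of growth. TGI: concentration producing complete growth inhibition.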

Columns and labels:
Test in all cases: growth of human tumour cells (NCI), 48 h
A498 renal = system: A498 renal
DU-145 prostate = system: DU-145 prostate
OVCAR-4 ovarian = system: OVCAR-4 ovarian
UO-31 renal = system: UO-31 renal
M14 melanoma = system: M14 melanoma
MCF7 breast = system: MCF7 breast
CAKI-1 renal = system: CAKI-1 renal
OVCAR-5 ovarian = system: OVCAR-5 ovarian
TK-10 renal = system: TK-10 renal
HOP-92 NSCLC = system: HOP-92 NSCLC
SK-MEL-28 melanoma = system: SK-MEL-28 melanoma
SNB-19 CNS = system: SNB-19 CNS
MALME-3M melanoma = system: MALME-3M melanoma
MDA-N = system: MDA-N
UACC-62 melanoma = system: UACC-62 melanoma
SK-MEL-2 melanoma = system: SK-MEL-2 melanoma
T-47D breast = system: T-47D breast
SF-268 CNS = system: SF-268 CNS
HS 578T breast = system: HS 578T breast
COLO 205 colon = system: COLO 205 colon
NCI-H226 lung = system: NCI-H226 lung
EKVX NSCLC = system: EKVX NSCLC
MOLT-4 leukemia = system: MOLT-4 leukemia
HT29 colon = system: HT29 colon
CCRF-CEM leukemia = system: CCRF-CEM leukemia
A549 NSCLC = system: A549 NSCLC
MDA-MB-435 = system: MDA-MB-435
MDA-MB-231 breast = system: MDA-MB-231 breast
SNB-75 CNS = system: SNB-75 CNS
BT-549 breast = system: BT-549 breast
OVCAR-8 ovarian = system: OVCAR-8 ovarian
NCI/ADR-RES ovarian = system: NCI/ADR-RES ovarian
NCI-H23 lung = system: NCI-H23 lung
OVCAR-3 ovarian = system: OVCAR-3 ovarian
NCI-H522 lung = system: NCI-H522 lung
HL-60(TB) leukemia = system: HL-60(TB) leukemia
UACC-257 melanoma = system: UACC-257 melanoma
PC-3 prostate = system: PC-3 prostate
LOX IMVI melanoma = system: LOX IMVI melanoma
K-562 leukemia = system: K-562 leukemia
ACHN renal = system: ACHN renal
786-0 renal = system: 786-0 renal
SK-OV-3 ovarian = system: SK-OV-3 ovarian
HCT-116 colon = system: HCT-116 colon
SK-MEL-5 melanoma = system: SK-MEL-5 melanoma
RPMI-8226 leukemia = system: RPMI-8226 leukemia
HOP-62 NSCLC = system: HOP-62 NSCLC
IGROV1 ovarian = system: IGROV1 ovarian
SF-295 CNS = system: SF-295 CNS
SN12C renal = system: SN12C renal
RXF 393 renal = system: RXF 393 renal
SF-539 CNS = system: SF-539 CNS
HCT-15 colon = system: HCT-15 colon
U251 CNS = system: U251 CNS
SR leukemia = system: SR leukemia
KM12 colon = system: KM12 colon
SW-620 colon = system: SW-620 colon
HCC-2998 colon = system: HCC-2998 colon
NCI-H460 lung = system: NCI-H460 lung

## C=CCN1CCC(OC(=O)C(O)(/C=C\CC)C2CCCC2)CC1 (stereo not given)
A498 renal
  TGI: > 100 µM
DU-145 prostate
  TGI: > 100 µM
OVCAR-4 ovarian
  TGI: > 100 µM
UO-31 renal
  TGI: > 100 µM
M14 melanoma
  TGI: > 100 µM
MCF7 breast
  TGI: > 100 µM
CAKI-1 renal
  TGI: > 100 µM
OVCAR-5 ovarian
  TGI: > 100 µM
TK-10 renal
  TGI: > 100 µM
HOP-92 NSCLC
  TGI: > 100 µM
SK-MEL-28 melanoma
  TGI: > 100 µM
SNB-19 CNS
  TGI: > 100 µM
MALME-3M melanoma
  TGI: > 100 µM
MDA-N
  TGI: > 100 µM
UACC-62 melanoma
  TGI: > 100 µM
SK-MEL-2 melanoma
  TGI: > 100 µM
T-47D breast
  TGI: > 100 µM
SF-268 CNS
  TGI: > 100 µM
HS 578T breast
  TGI: > 100 µM
COLO 205 colon
  TGI: > 100 µM
NCI-H226 lung
  TGI: > 100 µM
EKVX NSCLC
  TGI: > 100 µM
MOLT-4 leukemia
  TGI: > 100 µM
HT29 colon
  TGI: > 100 µM
CCRF-CEM leukemia
  TGI: > 100 µM
A549 NSCLC
  TGI: > 100 µM
MDA-MB-435
  TGI: > 100 µM
MDA-MB-231 breast
  TGI: > 100 µM
SNB-75 CNS
  TGI: > 100 µM
BT-549 breast
  TGI: > 100 µM
OVCAR-8 ovarian
  TGI: > 100 µM
NCI/ADR-RES ovarian
  TGI: > 100 µM
NCI-H23 lung
  TGI: > 100 µM
OVCAR-3 ovarian
  TGI: > 100 µM
NCI-H522 lung
  TGI: > 100 µM
HL-60(TB) leukemia
  TGI: > 100 µM
UACC-257 melanoma
  TGI: > 100 µM
PC-3 prostate
  TGI: > 100 µM
LOX IMVI melanoma
  TGI: > 100 µM
K-562 leukemia
  TGI: > 100 µM
ACHN renal
  TGI: > 100 µM
786-0 renal
  TGI: > 100 µM
SK-OV-3 ovarian
  TGI: > 100 µM
HCT-116 colon
  TGI: > 100 µM
SK-MEL-5 melanoma
  TGI: > 100 µM
RPMI-8226 leukemia
  TGI: > 100 µM
HOP-62 NSCLC
  TGI: > 100 µM
IGROV1 ovarian
  TGI: > 100 µM
SF-295 CNS
  TGI: > 100 µM
SN12C renal
  TGI: > 100 µM
RXF 393 renal
  TGI: > 100 µM
SF-539 CNS
  TGI: > 100 µM
HCT-15 colon
  TGI: > 100 µM
U251 CNS
  TGI: > 100 µM

## CN(Cc1cnc2nc(N)nc(N)c2n1)c1ccc(C(=O)NC(CCS(=O)(=O)O)C(=O)O)cc1 (stereo not given)
SR leukemia
  TGI: > 100 µM
A498 renal
  TGI: > 100 µM
OVCAR-4 ovarian
  TGI: > 100 µM
UO-31 renal
  TGI: > 100 µM
M14 melanoma
  TGI: > 100 µM
MCF7 breast
  TGI: > 100 µM
CAKI-1 renal
  TGI: > 100 µM
TK-10 renal
  TGI: > 100 µM
KM12 colon
  TGI: > 100 µM
HOP-92 NSCLC
  TGI: > 100 µM
SW-620 colon
  TGI: > 100 µM
SK-MEL-28 melanoma
  TGI: > 100 µM
SNB-19 CNS
  TGI: > 100 µM
MALME-3M melanoma
  TGI: > 100 µM
MDA-N
  TGI: > 100 µM
UACC-62 melanoma
  TGI: > 100 µM
SK-MEL-2 melanoma
  TGI: > 100 µM
HCC-2998 colon
  TGI: > 100 µM
T-47D breast
  TGI: > 100 µM
SF-268 CNS
  GI50: 0.972 µM
  TGI: > 100 µM
HS 578T breast
  TGI: > 100 µM
COLO 205 colon
  TGI: > 100 µM
NCI-H226 lung
  TGI: > 100 µM
EKVX NSCLC
  TGI: > 100 µM
MOLT-4 leukemia
  TGI: > 100 µM
HT29 colon
  TGI: > 100 µM
CCRF-CEM leukemia
  TGI: 0.739 µM
A549 NSCLC
  TGI: > 100 µM
MDA-MB-435
  TGI: > 100 µM
MDA-MB-231 breast
  TGI: > 100 µM
SNB-75 CNS
  GI50: 96 µM
  TGI: > 100 µM
BT-549 breast
  TGI: > 100 µM
OVCAR-8 ovarian
  TGI: > 100 µM
NCI/ADR-RES ovarian
  TGI: > 100 µM
NCI-H23 lung
  TGI: > 100 µM
OVCAR-3 ovarian
  TGI: > 100 µM
NCI-H522 lung
  TGI: > 100 µM
NCI-H460 lung
  TGI: > 31.6 µM
HL-60(TB) leukemia
  TGI: 1.62 µM
UACC-257 melanoma
  TGI: > 100 µM
PC-3 prostate
  TGI: > 100 µM
LOX IMVI melanoma
  TGI: > 100 µM
ACHN renal
  TGI: > 100 µM
SK-OV-3 ovarian
  TGI: > 100 µM
SK-MEL-5 melanoma
  TGI: > 100 µM
RPMI-8226 leukemia
  TGI: > 100 µM
HOP-62 NSCLC
  TGI: > 100 µM
IGROV1 ovarian
  TGI: > 100 µM
SF-295 CNS
  TGI: > 100 µM
SN12C renal
  TGI: > 100 µM
SF-539 CNS
  TGI: > 100 µM
HCT-15 colon
  TGI: > 100 µM

## CN(c1c(Cl)cccc1Cl)S(=O)(=O)c1ccccc1[N+](=O)[O-]
SR leukemia
  TGI: > 100 µM
DU-145 prostate
  TGI: > 100 µM
OVCAR-4 ovarian
  TGI: > 100 µM
UO-31 renal
  TGI: > 100 µM
M14 melanoma
  TGI: > 100 µM
MCF7 breast
  TGI: > 100 µM
CAKI-1 renal
  TGI: > 100 µM
OVCAR-5 ovarian
  TGI: > 100 µM
TK-10 renal
  TGI: > 100 µM
KM12 colon
  TGI: > 100 µM
SW-620 colon
  TGI: > 100 µM
SK-MEL-28 melanoma
  TGI: > 100 µM
SNB-19 CNS
  TGI: > 100 µM
MALME-3M melanoma
  TGI: > 100 µM
MDA-N
  TGI: > 100 µM
UACC-62 melanoma
  TGI: > 100 µM
SK-MEL-2 melanoma
  TGI: > 100 µM
HCC-2998 colon
  TGI: > 100 µM
T-47D breast
  TGI: > 100 µM
SF-268 CNS
  TGI: > 100 µM
HS 578T breast
  TGI: > 100 µM
COLO 205 colon
  TGI: > 100 µM
NCI-H226 lung
  TGI: > 100 µM
EKVX NSCLC
  TGI: > 100 µM
MOLT-4 leukemia
  TGI: > 100 µM
HT29 colon
  TGI: > 100 µM
A549 NSCLC
  TGI: > 100 µM
MDA-MB-435
  TGI: > 100 µM
SNB-75 CNS
  TGI: > 100 µM
BT-549 breast
  TGI: > 100 µM
OVCAR-8 ovarian
  TGI: > 100 µM
NCI/ADR-RES ovarian
  TGI: > 100 µM
NCI-H23 lung
  TGI: > 100 µM
OVCAR-3 ovarian
  TGI: > 100 µM
NCI-H522 lung
  TGI: > 100 µM
NCI-H460 lung
  TGI: > 100 µM
UACC-257 melanoma
  TGI: > 100 µM
PC-3 prostate
  TGI: > 100 µM
LOX IMVI melanoma
  TGI: > 100 µM
ACHN renal
  TGI: > 100 µM
786-0 renal
  TGI: > 100 µM
SK-OV-3 ovarian
  TGI: > 100 µM
HCT-116 colon
  TGI: > 100 µM
RPMI-8226 leukemia
  TGI: > 100 µM
HOP-62 NSCLC
  TGI: > 100 µM
IGROV1 ovarian
  TGI: > 100 µM
SF-295 CNS
  TGI: > 100 µM
SN12C renal
  TGI: > 100 µM
RXF 393 renal
  TGI: > 100 µM
SF-539 CNS
  TGI: > 100 µM
HCT-15 colon
  TGI: > 100 µM
U251 CNS
  TGI: > 100 µM
